# From patent publication US6653344B2, “Pharmaceutical preparations containing a dibenzocyclooctane lignan derivative for treatment of neurodegenerative disease” (Elcom Bio Technology Co., Ltd., priority 2000, dated 2003)
# Entries after “also recorded” stand apart in the source; their conditions may differ.
# Experiments:
# Format in all cases: cell-based
# [1] = test system: MDA content in glutamate-injured primary cultured rat cortical cells; assay: Measurement of malondialdehyde (MDA) content, lipid peroxidation; details: for Protection (MDA content, lipid-peroxidation) / MDA: compound 1 µM for 1 hr before 100 µM glutamate, 24 hr; for MDA: control 70.2, glutamate-treated 198.2
# Protocol: Cells were collected by adding 0.1M potassium phosphate buffer (pH 7.4) to culture-broth-removed remainings from first cultured cortical cells. The collected cells were treated by supersonic wave for 20 seconds and were centrifuged at 4° C. with 3,000 g for 20 minutes to obtain the supernatant.
# To 500 μl of cell supernatant, 500 μl of 10% trichroroacetic acid(TCA) was added and leaved for 10 minutes. The precipitated protain was removed by using centrifuge. To the supernatant, final concentration of 0.2% of thiobarbituric acid is added to prepare 1 ml of solution and reacted at 100° C. for 1 hour. Adsorption was measured at 535 nm and converted and obtained by comparing the contents of MDA with 1,1,3,3-tetraethoxypropane as standard. (Yagi K A, 1976, Simple fluorometric assay for lipoperoxide in blood plasma, Biochem Med 15: 212-216).
# NO which is over-formed by glutamate and superoxide anion are each combined to form peroxynitrite. (Almeida et al. 1998). Such formed peroxynitrite with free radical which is formed by glutamate toxicity induce oxidative stress on neurons and induce lipid-peroxidation of cells. Wuweizusu C suppressed 67% of lipid-peroxidation induced by glutamate.
# (§1) Rat cortical cultures were treated with compounds at the concentration of 1 M for 1 hr before exposure to 100 M glutamate and then maintained for 24 hr. Values given represent the mean SD (n=3).
# [2] = test system: intracellular Ca2+ ([Ca2+]i) in glutamate-damaged primary cultured rat cortical cells; assay: Measurement of Ca2+ concentration in cells (Fura-2 AM); details: for Protection ([Ca2+]i): compound 1 M (1 μM) for 1 hr before 100 M glutamate; for Protection ([Ca2+]i) / [Ca2+]i: 24 hr; for [Ca2+]i: compound for 1 hr, control 85.6, glutamate-treated 419.0
# Protocol: Therefore, the effects of Ca^2+ influx by glutamate according to deoxyschizandrin, gomisin N and wuweizisu C were investigated.
# as §1
# [3] = test system: glutamate-damaged primary cultured rat cortical cells; assay: Neuroprotection against glutamate-induced neurotoxicity, cell viability by MTT assay; design: Viability (%) Pre-treatment / Viability (%) Post-treatment: unit of the concentration uncertain; details: for Viability: 1 hr before 100 M glutamate, then 24 hr, control 100, glutamate-treated 0; for Viability (%) Pre-treatment: compound 1 µM for 1 hr before 100 µM glutamate (15 min), then 24 hr in DMEM in the absence of compound; for Viability (%) Post-treatment: glutamate 15 min, washed, 24 hr in the presence of compound 1 µM; for neuroprotective activity, post-treatment (in words): post-treatment with lignan after glutamate; for neuroprotective activity, pre-treatment (in words): pre-treatment with lignan before glutamate; for neuroprotective activity against glutamate-induced neurotoxicity (in words): primary cultures of rat cortical cells, L-glutamate
# Protocol: Primary cultures of mixed cortical cells containing both neuron and glia were prepared from fetal rats as described previously (Kim Y C, Kim S R, Markelonis G J and Oh T H (1998) Ginsenosides Rb1 and Rg3 protect cultured rat cortical cells from glutamate-induced neurodegeneration. J. Neurosci. Res. 53: 426-432).
# The cortical cells were plated onto collagen-coated dishes at a density of 1×10^6 cells/ml. The cultured cells were grown in DMEM supplemented with 10% heat-inactivated fetal calf serum, 1 mM sodium pyruvate, 100 IU/ml pecicillin and 100 μg/ml streptomycin at 37° C. in a humidified atmosphere of 95% air/5% CO2. cultures were allowed to mature for 2 weeks before being used for experiments.
# The lignan compounds to be investigated for having neuroprotective activity or not were dissolved in DMSO(within final culture concentration, 0.1%) and diluted with distilled water and by passing the solution through Milliporemembrane (0.22 μm, Millex-GV, USA) to make sterile state. The solution was cultured, by differentiating the concentration and dosed to neuron cells.
# Cortical cells directly isolated from […] fetal were cultured for 14 days. The samples to be tested were treated at different concentrations to cultured cells. After one hour, neurotoxicity was induced by treating 100 μM of glutamate. After 24 hours, the survival cell rate were measured by MTT assay to determine neuroprotective activity of the samples.
# To culture broth of the cortical cells during being cultured, MTT(5 mg/ml) was added by 10% of the culture broth. The broth was cultured for more 3 hours. The formed formazan was dissolved by DMSO and was assayed absorption at 540 nm ((Mosmann T (1983) Rapid colorimetric assay for cellular growth and survival: Application to proliferation and cytotoxicity assays. J. Immuno. Methods 65: 55-61)
# Deoxychizandrin, gomisin N, schizandrin and wuweizisu C, the important dibenzocyclooctane lignans of Schizandra fruit were evaluated by assessing the viability of cultured cortical neurons after treatment with the neurotoxicant, glutamate. […] After cortical cells were cultured for 14 days, test compounds were dosed at different concentrations and after 1 hour neurotoxicity was induced by 100 μM glutamate. After culturing for 24 hours, the neuroprotective activity was measured. The neuroprotective activity of the compounds were measured by MTT assay for assaying the activity of succinate dehydrogenase. […] And the content of formazan is decreased, too. By using this phenomena, cell survival rate can be measured.
# We investigated the protective mechanisms of deoxyschizandrin, gomisin N and wuweizisu C in an attempt to determine at which stage these lignans protected neurons from glutamate-induced toxicity. Cultures were pretreated with the lignans for […] exposure to glutamate(pre-treatment). In addition, some cultures were exposed to glutamate in DMEM for 24 hours in the […] of lignans (post-treatment).
# Rat Cortical cultures were treated with compounds for 1 hr before exposure to 100 M glutamate and then maintained for 24 hr. Cell viability was measured by the MTT assay. Optical density (OD) of the control and glutamate-treated were 1.18±0.09 and 0.75±0.07, respectively. Viability was calculated as 100×(OD of glutamate+compound-treated−OD of glutamate-treated)/(OD of control−OD of glutamate-treated). Values given represent the mean SD (n=3).
# Rat cortical cultures were treated with compounds at the concentration of 1 M for 1 hr before exposure to 100 M glutamate (15 min) and then maintained in DMEM for 24 hr in the absence of compound (Pre-treatment). Some cortical cultures were exposed to glutamate for 15 min, washed and maintained in DMEN for 24 hr in the presence of compund (Posttreatment). Cell viability was measured by the MTT assay. Optical density (OD) of the control and glutamate-treated were 1.18±0.09 and 0.75±0.07, respectively. Viability was calculated as the same as Table 1. Values given represent the mean SD (n=3). […]
Compound,suppression of lipid-peroxidation induced by glutamate (in words) [1],"Protection (MDA content, lipid-peroxidation) [1] [%]",MDA [1] [nmol/mg protein],effect on Ca2+ influx by glutamate (in words) [2],Protection ([Ca2+]i) [2] [%],[Ca2+]i [2] [nM],Viability ([3]; compound 0.1 μM) [%],Viability (%) Pre-treatment [3] [%],"Viability ([3]; compound 1.0 μM, 1 µM) [%]","Viability ([3]; compound 1.0 μM, listed as deoxyschzandrin, 1 µM) [%]",Viability ([3]; compound 5.0 μM) [%],Viability (%) Post-treatment [3] [%],"neuroprotective activity, post-treatment (in words) [3]","neuroprotective activity, pre-treatment (in words) [3]",neuroprotective activity against glutamate-induced neurotoxicity (in words) [3],Protection ([Ca2+]i) ([2]; listed as gomisin N) [%],"Viability ([3]; compound 1.0 μM, listed as gomisin N, 1 µM) [%]","Protection (MDA content, lipid-peroxidation) ([1]; listed as Wuweizusu C) [%]","Viability ([3]; compound 1.0 μM, listed as wuwiewisu C, 1 µM) [%]"
"COc1cc2c(c(OC)c1OC)-c1c(cc(OC)c(OC)c1OC)C[C@H](C)[C@H](C)C2 [Deoxyschizandrin, deoxyschizandrin]",significantly suppressed,49.2,135.4 ± 10.7,did not significantly effect,20.5,350.7 ± 18.2,11.6 ± 5.1,20.1 ± 3.1,46.2 ± 6.3,46.2,45.6 ± 3.1,45.9 ± 5.5,significant neuroprotective activity,not pre-treated,exhibited neuroprotective activities; also recorded: significantly have protective activity,,,,
"COc1cc2c(c(OC)c1OC)-c1c(cc3c(c1OC)OCO3)C[C@H](C)[C@H](C)C2 [Gomisin N, gomisin N]",significantly suppressed,57.0,125.6 ± 11.1,,60.3,218.0 ± 11.9,25.2 ± 4.4,45.5 ± 9.8,51.3 ± 8.3,,49.2 ± 9.5,39.6 ± 6.2,maintained its activity,maintained its activity,exhibited neuroprotective activities; also recorded: significantly have protective activity,50.3,51.3,,
"COc1c2c(cc3c1-c1c(cc4c(c1OC)OCO4)C[C@H](C)[C@H](C)C3)OCO2 [Wuweizisu C, wuweizisu C]",,68.7,110.5 ± 9.0,,67.9,192.6 ± 9.1,30.2 ± 6.3,59.6 ± 5.1,63.9 ± 5.9,,60.9 ± 9.6,19.2 ± 7.8,not post-treatment,neuroprotective,exhibited neuroprotective activities; also recorded: significantly have protective activity,,,67,63.9
